{"source": "the NIST ThermoML archive (doi:10.1016/j.tca.2010.01.019)", "settings": "Crystal, Calculated from knudsen effusion weight loss", "note": "± gives the expanded uncertainty stated by the source.", "data": [{"smiles": "CC(C)(C)c1ccc2c(c1)-c1nc-2nc2[n-]c(nc3nc(nc4[n-]c(n1)c1ccc(C(C)(C)C)cc41)-c1ccc(C(C)(C)C)cc1-3)c1ccc(C(C)(C)C)cc21.[Cu+2]", "note": "[copper tetra-4-tert-butylphthalocyanine]", "values": [{"measurement": "vapor or sublimation pressure", "setting": "587 K", "result": "4.737e-06 ± 3.3e-06", "unit": "kPa"}, {"measurement": "vapor or sublimation pressure", "setting": "604 K", "result": "1.852e-05 ± 6.8e-06", "unit": "kPa"}, {"measurement": "vapor or sublimation pressure", "setting": "620 K", "result": "5.892e-05 ± 1.7e-05", "unit": "kPa"}, {"measurement": "vapor or sublimation pressure", "setting": "640 K", "result": "0.0001549 ± 4.1e-05", "unit": "kPa"}, {"measurement": "vapor or sublimation pressure", "setting": "656 K", "result": "0.0004 ± 8.6e-05", "unit": "kPa"}, {"measurement": "vapor or sublimation pressure", "setting": "679 K", "result": "0.0008741 ± 0.00019", "unit": "kPa"}, {"measurement": "vapor or sublimation pressure", "setting": "696 K", "result": "0.002084 ± 0.00039", "unit": "kPa"}]}]}
